Experimental data: US7271239B2, “D-isomers of antimicrobial peptide” (The Research Foundation of State University of New York, priority 2004, dated 2007)
≈ marks a conversion by molar mass, not a printed value. Where two headings read alike, the source gives them in different places. Where a SMILES comes first, the peptide text is derived from it. Where no end group is shown, it is not given here. [ ]: non-standard residue; d: D form.

Assays:
[1] = test system: Ps. aeruginosa ATCC 17648; assay: microbe, parasite or virus in culture; assay type: cell-based, Pseudomonas aeruginosa; conditions: for MBC / MIC: Pseudomonas aeruginosa, ATCC17648
Source text: (§1) The bacteria used in this study included Streptococcus mutans ATCC10449, Streptococcus mutans AU 159, Streptococcus mutans GS-5, Streptococcus mutans GS-5 mutant (^gtf BCD), Streptococcus gordonii Challis, Porphyromonas gingivalis W50, Porphyromonas gingivalis 381, A. actinomycetemcomitans NCTC 9710, Pseudomonas aeruginosa ATCC 17648, and Escherichia coli HB101. One quarter strength (25%) of brain heart infusion broth (BHI, DIFCO Laboratories, Detroit, Mich.) was used for the growth of S. mutans, S. gordonii, A. actinomycetemcomitans, Ps. aeruginosa, and E. coli. For growth of P. gingivalis, tryptic soy broth-yeast extract medium (TSBY, DIFCO Laboratories, Detroit, Mich.) supplemented with cysteine hydrochloride (0.05%), menadione (0.02 μg/ml), hemin (5 μg/ml), and potassium nitrate (0.02%) was used. All bacteria were cultured at 37° C.; Ps. aeruginosa and E. coli were grown aerobically, and the other bacteria, anaerobically. To prepare bacterial cell suspension for antibacterial activity assays, each overnight culture was harvested by centrifuge (3783 g, 10 min), washed once with 10 mM sodium phosphate-buffered saline (PBS, pH 7.2), resuspended in PBS and adjusted to a concentration of 1×10^6 cells/mL.
(§2) MICs of the peptides were determined by broth microdilution method as previously described (5). Briefly, two-fold serial dilutions of each peptide were prepared with 25% BHI medium at a volume of 200 μl per well in 96-well flat-bottom microtiter plates (Costar, Cambridge, Mass.). The final concentration of the peptides ranged from 0.78 to 100 μM, and chlorhexidine (CHX), used as a positive control, from 20 to 0.16 μM (10 to 0.078 μg/mL). The microtiter plate was inoculated with bacterial cell suspension with final concentration of 5×10^6 CFU/mL for P. gingivalis and 5×10^5 CFU/mL for the other bacterial species. After incubation at 37° C. for 48 h, the absorbance was measured at 595 nm by using a microplate reader (Model 3550, Bio-Rad, Japan) to assess the cell growth. […] The MIC value represents the median of at least three independent experiments. The minimal bactericidal concentration (MBC) was determined as follows. Aliquot (100 μl) of cell suspension was taken from two wells above MIC, centrifuged, and washed three times with PBS. Then each cell suspension was plated on TSBY agar plate, and bacterial cells were enumerated after incubation at 37° C. for 48 h. The MBC was defined as the lowest concentration of the peptide at which more than 99.9% of cells were killed compared to non-treated control.

[2] = test system: S. gordonii Challis; assay: microbe, parasite or virus in culture; assay type: cell-based, Streptococcus gordonii; conditions: for MBC / MIC: Streptococcus gordonii
Source text: as §1, §2

[3] = test system: A. actinomycetemcomitans NCTC 9710; assay: microbe, parasite or virus in culture; assay type: cell-based; conditions: for MBC / MIC: Aggregatibacter actinomycetemcomitans, NCTC9710
Source text: as §1, §2

[4] = test system: Candida strains; assay type: cell-based
Source text: Killing assays in saliva. […] Saliva without peptides was a blank control.
Activity of peptides in saliva against different candida strains. The in vitro candidacidal activities of MUC7 12-mer-L and D, Hsn5 12-mer, and Magainin-II against four Candida strains in clarified saliva are shown in Table 1. The data are presented as percent loss of cell viability compared to non-treated control. The following observations were made. […] In the presence of PIC, the activity values of MUC7 12-mer-L and of Magainin-II rose close to a 100% for all strains, but not that of Hsn5 peptide, which achieved the similar activity only against the C. albicans (ATCC strain). The activities against the other strains were much lower, in particular against both strains of C. glabrata (30-40%). […] This was true especially in saliva without PIC.

[5] = test system: trypsin; assay: Susceptibility of peptides to trypsin (SDS-PAGE); assay type: in vitro ADME
Experimental: (§3) FIGS. 3A and 3B. Stability of antimicrobial peptides in (3A) Trypsin and (3B) unclarified saliva. Each peptide (3 μg in 5 μl of 0.5 M Tris-HCl buffer pH 7.5) was incubated with: 0.2 μg/ml trypsin containing PIC or no PIC for 0.5 h; or saliva (10 μl) for 1 h. The control of each compound was also incubated with Tris-HCl buffer in parallel. The samples were analyzed by 13% SDS-PAGE. The gel was stained with Coomassie brilliant blue and further analyzed for the peptide degradation by GS-700 Imaging Densitometer. The degradation was estimated by the equation: 1−(density of test band/density of control band)×100%. Ctrol: each peptide alone; T: trypsin plus peptide; T+PIC: trypsin containing PIC plus peptide; S: saliva plus peptide; S+PIC: saliva containing PIC plus peptide.
(§4) Stability of peptides in saliva and susceptibility of septides to trypsin. Three microliters of each peptide (MUC7 12-mer-D, MUC7 12-mer-L, Hsn5 12-mer, or Magainin-II, at 1 μg/μl in 0.2 M Tris-HCl buffer pH 7.5) were incubated with 11 μl of 0.2 μg/ml trypsin or saliva. This gave a final concentration of 0.16 μg/ml for trypsin, and 0.2 μg/μl for peptides (or 127, 127, 128, and 81 μM, for MUC7 12-mer-D, MUC7 12-mer-L, Hsn5 12-mer, or Magainin II, respectively). The reactions, without PIC (water instead or PIC) or with 1×PIC [50% (v/v)] were incubated 0.5 h with trypsin, and 1 hr with saliva (clarified or unclarified) at 37° C. The control of each compound was also incubated with Tris-HCl buffer in parallel. The samples were analyzed by 13% SDS-PAGE. Gels was stained with Coomassie brilliant blue R-250 and further analyzed for the peptide degradation by GS-700 Imaging Densitometer (Bio Red). The degradation was estimated by the equation: 1−(density of test band/density of control band)×100%.

[6] = Stability of peptides in saliva (SDS-PAGE); assay type: in vitro ADME, human
Experimental: as §3, §4

| Compound | killing [4] | degradation by trypsin [5] | MBC (μM) ([1]; ATCC 17648) [µM] | MBC (μg/ml) ([1]; ATCC 17648) [µg/mL] | MIC (μM) ([1]; ATCC 17648) [µM] | degradation by saliva [6] | MBC (μM) [2] [µM] | MIC (μM) [2] [µM] | MBC (μM) ([3]; NCTC 9710) [µM] | MBC (μg/ml) ([3]; NCTC 9710) [µg/mL] | MIC (μM) ([3]; NCTC 9710) [µM] | MIC (μg/ml) ([3]; NCTC 9710) [µg/mL] | MIC (μg/ml) ([1]; ATCC 17648) [µg/mL] | MBC (μg/ml) [2] [µg/mL] | MIC (μg/ml) [2] [µg/mL] | further results |
| --- | --- | --- | --- | --- | --- | --- | --- | --- | --- | --- | --- | --- | --- | --- | --- | --- |
| [H]/N=C(\N/C(=N/[H])NCCCCCCNC(=N)NC(=N)Nc1ccc(Cl)cc1)Nc1ccc(Cl)cc1 [Chlorhexidine, Chlorhexidine digluconate] |  |  |  |  |  |  |  |  |  |  |  |  |  |  |  | MBC ([1]; read-out: MBC): 10 µM; MBC ([1]; read-out: MBC (μg/ml)): 5.1 µg/mL; MIC ([1]; read-out: MIC): 10 µM; MIC ([1]; read-out: MIC (μg/ml)): 5.1 µg/mL; MBC ([2]; read-out: MBC): 4 µM; MBC ([2]; read-out: MBC (μg/ml)): 2 µg/mL; MIC ([2]; read-out: MIC): 2.5 µM; MIC ([2]; read-out: MIC (μg/ml)): 1.2 µg/mL; MBC ([3]; read-out: MBC): 20 µM; MBC ([3]; read-out: MBC (μg/ml)): 10.1 µg/mL; MIC ([3]; read-out: MIC): 20 µM; MIC ([3]; read-out: MIC (μg/ml)): 10.1 µg/mL |
| CC(C)C[C@@H](NC(=O)[C@@H](CS)NC(=O)[C@@H](CCCCN)NC(=O)[C@@H](Cc1ccc(O)cc1)NC(=O)[C@@H](CO)NC(=O)[C@@H](CCCCN)NC(=O)[C@H](N)CCCNC(=N)N)C(=O)N[C@H](Cc1c[nH]cn1)C(=O)N[C@H](CCCCN)C(=O)N[C@H](CCCNC(=N)N)C(=O)N[C@H](CS)C(=O)N[C@H](CCCNC(=N)N)C(=O)O [MUC7 12-mer-D] (H-[dR][dK][dS][dY][dK][dC][dL][dH][dK][dR][dC][dR]-OH; N-terminus and C-terminus assumed) | ~100% | resistant to the degradation | >100 | >158 | 100.0 (≈ 158 µg/mL) | resistant to the degradation | 100.0 (≈ 158 µg/mL) | 50.0 (≈ 78.9 µg/mL) | >100 | >158 | >100 | >158 |  |  |  | activity (killing) [4]: 47-100% |
| CC(C)C[C@H](NC(=O)[C@H](CS)NC(=O)[C@H](CCCCN)NC(=O)[C@H](Cc1ccc(O)cc1)NC(=O)[C@H](CO)NC(=O)[C@H](CCCCN)NC(=O)[C@@H](N)CCCNC(=N)N)C(=O)N[C@@H](Cc1c[nH]cn1)C(=O)N[C@@H](CCCCN)C(=O)N[C@@H](CCCNC(=N)N)C(=O)N[C@@H](CS)C(=O)N[C@@H](CCCNC(=N)N)C(=O)O [MUC7 12-mer-L] (H-RKSYKCLHKRCR-OH; N-terminus and C-terminus assumed) | 44-80% | degraded | >100 | >158 | >100 | degraded | 100.0 (≈ 158 µg/mL) | 50.0 (≈ 78.9 µg/mL) | >100 | >158 | >100 | >158 | >158 |  |  |  |
| AKRHHGYKRKFH [Hsn5 12-mer] |  | degraded | >100 | >158 | >100 | degraded | >100 | >100 | >100 | >158 | >100 | >158 | >158 | >158 | >158 |  |
| GIGKFLHSAKKFGKAFVGEIMNS [Magainin-II] |  |  |  |  |  |  | >50 | 50.0 |  |  |  |  |  | >123 | 123.5 | degradation by trypsin ([5]; 0.5 h, 37° C., SDS-PAGE): degraded; MBC (μM) [1]: 100.0 µM; MBC (μg/ml) [1]: 246.9 µg/mL; MIC (μM) [1]: >100 µM; MIC (μg/ml) [1]: >246.9 µg/mL; degradation by saliva ([6]; unclarified saliva, 1 h, 37° C., SDS-PAGE): degraded; MBC (μM) [3]: 50.0 µM; MBC (μg/ml) [3]: 123.5 µg/mL; MIC (μM) [3]: 50.0 µM; MIC (μg/ml) [3]: 123.5 µg/mL |
